In US20060154919A1, “Combination of a glycine transporter (GLYT1) inhibitor and an antipsychotic for the treatment of symptoms of schizophrenia as well as its preparation and use thereof” (priority 2004, published 2006):
“Also recorded” adds a separate entry of the source.

Columns and labels:
[1] = test system: extracellular glycine in the striatum; assay: Microdialysis: extracellular glycine in the rat striatum; format: in vivo; conditions: for dose-response of extracellular glycine: ascending doses (COMPOUND NO. 1 0.63, 2.5, 10 mg/kg; risperidone 0.16, 0.63, 2.5 mg/kg)
Description: (§1) Compounds (as a Na salt) were stored, dissolved, and administered according to detailed instructions accompanying each compound. Compounds were dissolved in a solvent consisting of 10% BCD (beta cyclodextrin) and administered subcutaneously.
(§2) Male Sprague Dawley rats weighing 275-325 g at the start of the experiment were individually housed in a temperature-controlled colony room with a 12-h light/dark cycle. Food and water was available ad libitum throughout the experiment. The housing conditions and care of the animals were in accordance with the “Guide for the Care and Use of Laboratory Animals” (Institute of Laboratory Animal Resources on Life Sciences, National Research Council, 1996).
(§3) Guide cannula were stored in 95% ETOH prior to surgery, whereas surgical tools underwent heat sterilization (250 °C) immediately before each surgery. Rats were anesthetized using a ketamine hydrochloride (100 mg/kg, IP) xylazine (12 mg/kg) mixture. After adequate anesthesia had been determined (using toe and tail pinch procedures), rats were placed into a stereotaxic instrument. The skull region was wiped with a 2% Betadine solution and a rostrocaudal incision was made to expose the surface of the skull. Bilateral guide cannula (20 gauge; Plastics One) were chronically implanted over the medial striatum (A/P: +0.5, M/L: ±2.5, D/V: −2.0; Paxinos & Watson, 1998) and secured using four skull screws and cranioplastic cement. The cannula need to be implanted at an angle to obtain the minimum inter-cannula distance needed for our probe leash used during microdialysis sampling. Following surgery, body temperature was maintained using a heating pad and the rats were monitored until fully conscious. Rats were then individually housed and assessed daily by monitoring general activity, body weight, and feces. Rats were monitored for signs of an infection and cefazolin (100 mg/kg; intramuscular) was available as needed. Notation was made of any animal administered antibiotic.
(§4) Rats were given at least five days to recover prior to microdialysis sampling. Approximately 18 hr prior to sampling, a microdialysis probe (24 gauge; 2-3 mm exposed membrane; 13000 MWCO) encased in a spring leash and attached to a liquid swivel connected to a balancing arm was inserted into the guide cannula of an awake rat. The probe was secured in place by screwing a threaded portion of the probe leash onto the guide cannula. The rat was then placed into a behavioral chamber (Omnitech, Columbus Ohio) equipped with a fan and house light (10W), and food and water was available ad libitum. On the day of the experiment, dialysis buffer consisting of 5 mM glucose, 140 mM NaCl, 1.4 mM CaCl2, 1.2 mM MgCl2, and 0.15% phosphate buffer saline, pH 7.4, was perfused through the probe (2.0 μl/min) at least two hr prior to sample collection. Twenty-min dialysis samples were then collected for two hr to determine basal glycine levels. Rats were then injected (intraperitoneal) with vehicle or one dose of the test compound, and 30-min samples were collected for up to 10 hr. Samples were split for separate chromatographic evaluation of glycine and dopamine, and frozen (−80 °C) until analyzed.
(§5) Rats, with the dialysis probes in place, were given an overdose of pentobarbital, and the brains fixed by intracardiac infusion of PBS-formalin. Coronal brain sections were 100 μM thick and stained with cresyl violet to verify probe placements. Probes were left in place as the animal was perfused in order to check for the presence of blood in the probe tract.
The concentrations of glycine and dopamine in dialysate samples was determined using a Waters Alliance 2690 HPLC system with fluorometeric detection or an ESA coulometric electrochemical detection HPLC system, respectively. Dialyis samples were split between the two systems enabling both dopamine and glycine to be measured in each sample. A Waters Spherisorb ODS2 column (5 μM, 4.6×250 mm) was used to separate the amino acids.

[2] = test system: extracellular dopamine in the striatum; assay: Microdialysis: extracellular dopamine in the rat striatum; format: in vivo; conditions: for dose-response of extracellular dopamine: ascending doses (COMPOUND NO. 1 0.63, 2.5, 10 mg/kg; risperidone 0.16, 0.63, 2.5 mg/kg)
Description: as §1, §2, §3, §4, §5
For dopamine analysis, samples were placed in an ESA (Chelmsford, Mass.) Model 540 autosampler connected to an HPLC system with electrochemical detection. Separation was achieved by pumping the samples through a 15 cm C18 reversed phase column (ESA, Inc.) and then samples were reduced/oxidized using coulometric detection.

[3] = COMPOUND NO. 1 alone, 10 mg/kg (highest dose), 10 mg/kg
[4] = risperidone alone, 0.16 mg/kg (lowest dose)

SMILES	increase in extracellular glycine [1, 3] [fold]	dose-response of extracellular glycine [1]	reduction in extracellular dopamine ([2]; COMPOUND NO. 1 alone, 0.63 mg/kg (lowest dose)) [%]	effect on extracellular dopamine ([2]; COMPOUND NO. 1 alone, 0.63 mg/kg (lowest dose), 0.63 mg/kg)	effect on extracellular dopamine ([2]; COMPOUND NO. 1 alone, 2.5 mg/kg)	effect on extracellular dopamine [2, 3]	dose-response of extracellular dopamine [2]	threshold dose for elevation in extracellular glycine ([1]; risperidone alone) [mg/kg]	effect on extracellular glycine [1, 4]	increase in extracellular glycine ([1]; risperidone alone, 2.5 mg/kg (highest dose)) [fold]	effect on extracellular glycine ([1]; risperidone alone, at the dose examined in the combination (1.0 mg/kg))	threshold dose for elevation in extracellular dopamine ([2]; risperidone alone) [mg/kg]	elevation in extracellular dopamine [2, 4]	expected increase in extracellular dopamine ([2]; risperidone alone, 1.0 mg/kg, expected from FIGS. 1C-1D) [%]	increase in extracellular dopamine ([2]; risperidone alone, two higher doses (0.63 and 2.5 mg/kg))
CN(C/C=C(/C#Cc1ccc(-c2ccoc2)cc1)c1ccccc1)CC(=O)O [COMPOUND NO. 1]	2.5	dose-dependent increase; also recorded: dose-dependent elevation	~50	significant reduction; also recorded: reduced extracellular dopamine	normalized; also recorded: returned to normal	remained unaltered; also recorded: without effect	biphasic								
Cc1nc2n(c(=O)c1CCN1CCC(c3noc4cc(F)ccc34)CC1)CCCC2 [risperidone, 3-[2-[4-(6-fluoro-1,2-benzisoxazol-3-yl)piperidino]ethyl]-2-methyl-6,7,8,9-tetrahydro-4H-pyrido-[1,2-a]pyrimidin-4-one, reference compound]		dose-dependent elevation					dose-dependent elevation	0.16	without effect	2.5	modest rise	0.16	approximately 50%	300	3-4 fold
